The values that follow are results of earlier work, collected in patent publication US20240366545A1, “ANTIBACTERIAL PORPHYRIN NANOPARTICLES AND METHODS FOR MAKING AND USING THE SAME” (priority 2021, published 2024).

In the data set the test system is normal mammalian cells.

Turning to `CCCCCCCCCCCCCCCC[N+](C)(C)C.[Br-]` [CTAB, cetyl trimethylammonium bromide], the toxic concentration is ≥ 10 µM.
